Values of other authors, collected in patent US20040266704A1, “Method comprising irinotecan for treatment of breast cancer” (priority 2003, published 2004).

Experiments:
recurrent breast cancer = conditions: intravenous; four cases, previous chemotherapy including doxorubicin
[1] = tested on: advanced and metastatic breast cancer pretreated with doxorubicin and docetaxel; conditions: intravenous
[2] = tested on: refractory advanced breast cancer; conditions: IV, two schedules; 103 patients who failed an anthracycline, a taxane or both; preliminary data
[3] = tested on: advanced or recurrent breast cancer; conditions: intravenous drip-infusion; patients with advanced breast cancer
advanced breast cancer = conditions: intravenous; patients with prior endocrine therapy and prior chemotherapy including adriamycin or other anthracyclines
[4] = tested on: anthracycline resistant metastatic breast cancer; conditions: intravenous salvage therapy; twelve patients, prior chemotherapy including an anthracycline

## CCc1c2c(nc3ccc(OC(=O)N4CCC(N5CCCCC5)CC4)cc13)-c1cc3c(c(=O)n1C2)COC(=O)[C@]3(O)CC [CPT-11, [1,4′-Bipiperidine]-1′-carboxylic acid (4S)-4,11-diethyl-3,4,12,14-tetrahydro-4-hydroxy-3,14-dioxo-1H-pyrano[3′,4′:6,7]indolizino[1,2-b]quinolin-9-yl ester]
Recurrent breast cancer
  clinical efficacy against advanced or recurrent breast cancer: effective agent
[1]
  clinical efficacy in the salvage setting: inactive
[2]
  toxicity profile: acceptable toxicity profile
[3]
  clinical efficacy against advanced or recurrent breast cancer: effective
Advanced breast cancer
  clinical efficacy in advanced breast cancer: promising drug
[4]
  treatment results in metastatic breast cancer: satisfactory
